Data as given in article PMC12830042, “Investigating the impact of charge and hydrophilicity on peptide-mucin interactions using a simple mucin model” (AAPS open, 2025).

Test system: Mucin type II from porcine stomach
Experiment: Peptide diffusion across a mono-component mucin layer (Transwell donor to acceptor chamber)
Assay type: in vitro ADME
Details: for time window in which acceptor concentration plateaued / leveled off: donor 266 and 133 μg/mL (both concentrations); for time window in which acceptor concentration plateaued / leveled off / time window in which acceptor concentration plateaued: mucin layer, pH 6.8, HPLC; for maximum concentration in the acceptor chamber: ~2.5% (w/v) Type II porcine mucin on Transwell, phosphate buffer pH 6.8, 37°C, over 6 h, HPLC-UV 214 nm
Description: Around 2.5% (w/v) of Type II porcine mucin was added to the donor side of the Transwell™ plate along with 300–1000 μL of 6.8 pH phosphate buffer. The mixture was shaken at 37°C for 45–60 min until the proper suspension was attained. Then, 1–2 mL of phosphate buffer at 6.8 pH was added to the acceptor side of the Transwell™ plate.
Fig. 1 A schematic diagram of the diffusion chamber to study peptide diffusion through a mucin layer. The well consists of donor and acceptor chambers separated by a mucin layer. The peptide was added to the donor chamber, and the diffusion of the peptide was monitored by its appearance in the acceptor chamber. The peptide in the acceptor chamber was sampled as a function of time, and the peptide concentration was determined by fluorescence spectroscopy, HPLC, or mass spectrometry
Initially, FITC-ADT10 and FITC-HAV10 peptides were used to test the mucin model in phosphate buffer at pH 6.8. Different concentrations of peptide in phosphate buffer at pH 6.8 were added to the donor chamber; the acceptor chamber contained a phosphate buffer at pH 6.8 in the Transwell™. At predetermined time points, 100 μL aliquots were taken from the acceptor chamber, transferred into 96-well plates, and replaced with pre-heated phosphate buffer pH 6.8. The aliquots were then analyzed by fluorescence spectroscopy plate reader at […].
The diffusion of each unlabeled peptide from the donor-to-acceptor chambers was analyzed by Agilent® 1200 HPLC equipped with a Zorbax C18 column with 3.5 μm particle size and dimensions of 4.6 × 50 mm. The column temperature was held at 30°C during the chromatographic run. Mobile phase A was 0.1% trifluoroacetic acid in Milli-Q water, and mobile phase B was 0.085% trifluoroacetic acid in acetonitrile. The detector was a UV–Vis detector monitoring at 214 nm wavelengths. Calibration curves were prepared in phosphate buffer pH 6.8 in concentrations ranging from 1 to 266 μg/mL.
Student t-tests were used to analyze the difference between the percentage diffused of FITC-HAV10 and FITC-ADT10, octreotide and octreotide A5, and lanreotide and lanreotide A5. The difference in diffusion percentages of ADT peptides was analyzed using ANOVA with Student − Newman − Keul post hoc comparison of the means and Dunnett’s Test comparing DTPPD, DTPPT, and DTPPVK with ADTC5. Statistical significance was set at p < 0.05 unless otherwise stated.

Molecule	time window in which acceptor concentration plateaued / leveled off [h]	time window in which acceptor concentration plateaued (donor 133 μg/mL) [h]	maximum concentration in the acceptor chamber (donor 133 μg/mL) [mg/mL]	time window in which acceptor concentration plateaued (donor 266 μg/mL) [h]	maximum concentration in the acceptor chamber (donor 266 μg/mL) [mg/mL]
CC(C)[C@@H]1NC(=O)[C@H](CCCCN)NC(=O)[C@@H](Cc2c[nH]c3ccccc23)NC(=O)[C@H](Cc2ccc(O)cc2)NC(=O)[C@@H](NC(=O)[C@H](N)Cc2ccc3ccccc3c2)CSSC[C@@H](C(=O)N[C@H](C(N)=O)[C@@H](C)O)NC1=O [Lanreotide]	4 to 6	–	–	–	–
C[C@@H](O)[C@@H]1NC(=O)[C@H](CCCCN)NC(=O)[C@@H](Cc2c[nH]c3ccccc23)NC(=O)[C@H](Cc2ccccc2)NC(=O)[C@@H](NC(=O)[C@H](N)Cc2ccccc2)CSSC[C@@H](C(=O)N[C@H](CO)[C@@H](C)O)NC1=O [Octreotide]	–	4 to 6	0.00593	2 to 6	0.0116
Cyclo(1,7)Ac-CDTPPVC-NH2 (disulfide) [ADTC5, cyclic ADT cadherin peptide that modulates intercellular junctions]	2 to 6	–	–	–	–
